Results reported in patent US6706663B2, “Herbicidal 3-heterocyclic substituted benzisothiazole and benzisoxazole compounds” (Wyeth, priority 2000, dated 2004).

Key:
[1] = tested on: IPOHE (Ipomoea hederacea); test: Preemergence herbicidal evaluation; assay type: in vivo, (L.) Jacq.; conditions: rated 4-5 weeks after treatment
[2] = tested on: ZEAMX (Corn, Field); test: Postemergence herbicidal evaluation; assay type: in vivo, Zea mays, L.; conditions: for ZEAMX herbicidal rating: postemergence
Outline: (§1)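 Visual 0–9 injury scores versus control plants, covering stand, vigour, malformation, size, chlorosis and general appearance, taken four to five weeks post-spray and averaged over replicate tests. Plants were sprayed at roughly two weeks old and held on greenhouse benches.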

[3] = tested on: GLXMAW (Soybean, Williams); test: Postemergence herbicidal evaluation; assay type: in vivo, Glycine max, (L.) Merr. cv Williams; conditions: for GLXMAW herbicidal rating: postemergence
Outline: as §1

[4] = tested on: ECHORC (Echinochloa oryzoides); test: Flooded paddy, preemergence weed control; assay type: in vivo, Echinochloa oryzoides (Ard.) Fritsch.; conditions: rated 3-4 weeks after treatment, 0-9 rating scale
Outline: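 Seeds or propagating organs were sown in the top 0.5 cm of silt loam soil, flooded, and the water kept 1.5 to 3 cm above the soil surface throughout. Plants were grown in the greenhouse and rated visually on a 0-9 scale against a control.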

[5] = tested on: ORYSAT (Rice, Tebonnet); test: Flooded paddy, post-transplant rice tolerance; assay type: in vivo, Oryza sativa, (L.) Tebonnet; conditions: flooded paddy, post-transplant rice, rated 3-4 weeks after treatment, 0-9 rating scale
Outline: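 Visual 0–9 injury rating against a control, covering stand, vigor, malformation, size, chlorosis and overall appearance. Treatment was post-transplant onto flooded containers (water 1.5–3 cm deep, silt loam) holding two ten-day-old cv. Tebonnet seedlings, maintained on greenhouse benches.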

[6] = tested on: ABUTH (Abutilon theophrasti); test: Preemergence herbicidal evaluation; assay type: in vivo, Medic.; conditions: rated 4-5 weeks after treatment
[7] = tested on: TRZAWR (Wheat, Winter, cv Riband); test: Preemergence herbicidal evaluation; assay type: in vivo, Triticum aestivum; conditions: rated 4-5 weeks after treatment
Outline: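 Visual 0-9 rating versus untreated control, taken four to five weeks post-treatment, scoring stand, vigor, malformation, size, chlorosis and overall appearance. Compound applied as aqueous acetone spray to freshly seeded soil cups, then kept under standard greenhouse care.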

[8] = tested on: GLXMAW (Soybean, Williams); test: Preemergence herbicidal evaluation; assay type: in vivo, Glycine max, (L.) Merr. cv Williams; conditions: rated 4-5 weeks after treatment
[9] = tested on: ZEAMX (Corn, Field); test: Preemergence herbicidal evaluation; assay type: in vivo, Zea mays, L.; conditions: rated 4-5 weeks after treatment
[10] = tested on: ECHCG (Echinochloa crus-galli); test: Postemergence herbicidal evaluation; assay type: in vivo, (L.) Beau; conditions: for ECHCG herbicidal rating: postemergence
Outline: as §1

| SMILES | Preemergence herbicidal rating IPOHE ([1]; Rate 0.0620 kg/ha) | Preemergence herbicidal rating IPOHE ([1]; Rate 0.1250 kg/ha) | Preemergence herbicidal rating IPOHE ([1]; Rate 0.2500 kg/ha) | Postemergence herbicidal rating, ZEAMX ([2]; rate 0.0320 kg/ha) | herbicidal rating, ECHORC ([4]; rate 0.0320 kg/ha) | herbicidal rating, ECHORC ([4]; rate 0.1250 kg/ha) | herbicidal rating, ORYSAT (rice tolerance) ([5]; rate 0.0320 kg/ha) | herbicidal rating, ORYSAT (rice tolerance) ([5]; rate 0.1250 kg/ha) | Preemergence herbicidal rating ABUTH ([6]; Rate 0.0620 kg/ha) | Preemergence herbicidal rating ABUTH ([6]; Rate 0.1250 kg/ha) | Preemergence herbicidal rating ABUTH ([6]; Rate 0.2500 kg/ha) | Preemergence herbicidal rating TRZAWR ([7]; Rate 0.0620 kg/ha) | Preemergence herbicidal rating TRZAWR ([7]; Rate 0.1250 kg/ha) | Preemergence herbicidal rating TRZAWR ([7]; Rate 0.2500 kg/ha) | Preemergence herbicidal rating GLXMAW ([8]; Rate 0.0620 kg/ha) | Preemergence herbicidal rating GLXMAW ([8]; Rate 0.1250 kg/ha) | Preemergence herbicidal rating GLXMAW ([8]; Rate 0.2500 kg/ha) | Preemergence herbicidal rating ZEAMX ([9]; Rate 0.0620 kg/ha) | Preemergence herbicidal rating ZEAMX ([9]; Rate 0.1250 kg/ha) | Preemergence herbicidal rating ZEAMX ([9]; Rate 0.2500 kg/ha) | further results |
| --- | --- | --- | --- | --- | --- | --- | --- | --- | --- | --- | --- | --- | --- | --- | --- | --- | --- | --- | --- | --- | --- |
| Cc1cccnc1-c1nsc2cc(F)c(-n3c(=O)cc(C(F)(F)F)n(C)c3=O)cc12 [Compound 44, 3-[6-fluoro-3-(3-methyl-2-pyridyl)-1,2-benzisothiazol-5-yl]-1-methyl-6-(trifluoromethyl)uracil] | 3.0 | 7.5 | 9.0 | 5.0 | 8.5 | 9.0 | 7.5 | 7.5 | 9.0 | 9.0 | 9.0 | 6.0 | 7.0 | 9.0 | 5.0 | 6.5 | 9.0 | 7.5 | 7.5 | 9.0 | Postemergence herbicidal rating, ZEAMX ([2]; rate 0.0620 kg/ha): 5.5; Postemergence herbicidal rating, GLXMAW ([3]; rate 0.0320 kg/ha): 8.5; Postemergence herbicidal rating, GLXMAW ([3]; rate 0.0620 kg/ha): 8.5; herbicidal rating, ECHORC ([4]; rate 0.0080 kg/ha): 3.0; herbicidal rating, ORYSAT (rice tolerance) ([5]; rate 0.0080 kg/ha): 0.0; Postemergence herbicidal rating, ECHCG ([10]; rate 0.0320 kg/ha): 1.0; Postemergence herbicidal rating, ECHCG ([10]; rate 0.0620 kg/ha): 3.0 |
| Cc1cccnc1-c1nsc2cc(F)c(N3C(=O)C4=C(CCCC4)C3=O)cc12 [Compound 46, N-[6-fluoro-3-(3-methyl-2-pyridyl)-1,2-benzisothiazol-5-yl]-1-cyclohexene-1,2-dicarboximide] | 0.0 | 2.0 | 9.0 | 4.5 | 5.0 | 7.0 | 2.0 | 3.0 | 5.0 | 4.0 | 9.0 | 1.0 | 0.0 | 2.0 | 0.0 | 1.0 | 2.0 | 0.0 | 0.0 | 0.0 | Postemergence herbicidal rating, ZEAMX ([2]; rate 0.0620 kg/ha): 4.5; Postemergence herbicidal rating, ZEAMX ([2]; rate 0.1250 kg/ha): 5.5; Postemergence herbicidal rating, GLXMAW ([3]; rate 0.0320 kg/ha): 6.0; Postemergence herbicidal rating, GLXMAW ([3]; rate 0.0620 kg/ha): 7.5; Postemergence herbicidal rating, GLXMAW ([3]; rate 0.1250 kg/ha): 7.5; Postemergence herbicidal rating, ECHCG ([10]; rate 0.0320 kg/ha): 2.0; Postemergence herbicidal rating, ECHCG ([10]; rate 0.0620 kg/ha): 2.0; Postemergence herbicidal rating, ECHCG ([10]; rate 0.1250 kg/ha): 4.0 |
| C[C@@H]1OC(c2nsc3ccc(-n4c(=O)cc(C(F)(F)F)n(C)c4=O)cc23)O[C@@H]1C (stereo partly drawn) [Compound 47, 3-[3-[(4R,5S)-4,5-dimethyl-1,3-dioxolan-2-yl]-1,2-benzisothiazol-5-yl]-1-methyl-6-(trifluoromethyl)uracil] | 7.5 | 8.0 | 9.0 | 3.5 | 8.5 | 9.0 | 7.5 | 9.0 | 9.0 | 9.0 | 9.0 | 6.0 | 8.0 | 8.0 | 7.0 | 8.0 | 9.0 | 7.5 | 8.0 | 9.0 | Postemergence herbicidal rating, ZEAMX ([2]; rate 0.0620 kg/ha): 4.0; Postemergence herbicidal rating, GLXMAW ([3]; rate 0.0320 kg/ha): 7.5; Postemergence herbicidal rating, GLXMAW ([3]; rate 0.0620 kg/ha): 8.5; herbicidal rating, ECHORC ([4]; rate 0.0080 kg/ha): 5.0; herbicidal rating, ORYSAT (rice tolerance) ([5]; rate 0.0080 kg/ha): 3.0; Postemergence herbicidal rating, ECHCG ([10]; rate 0.0320 kg/ha): 0.0; Postemergence herbicidal rating, ECHCG ([10]; rate 0.0620 kg/ha): 3.0 |
| C[C@H]1OC(c2nsc3ccc(-n4c(=O)cc(C(F)(F)F)n(C)c4=O)cc23)O[C@@H]1C [Compound 48, 3-[3-[(4R,5R)-4,5-dimethyl-1,3-dioxolan-2-yl]-1,2-benzisothiazol-5-yl]-1-methyl-6-(trifluoromethyl)uracil] | 8.0 | 8.5 | 9.0 | 4.5 | 9.0 | 9.0 | 8.0 | 9.0 | 9.0 | 9.0 | 9.0 | 6.0 | 8.0 | 8.0 | 9.0 | 9.0 | 9.0 | 7.5 | 8.0 | 9.0 | Postemergence herbicidal rating, ZEAMX ([2]; rate 0.0620 kg/ha): 5.7; Postemergence herbicidal rating, GLXMAW ([3]; rate 0.0320 kg/ha): 8.0; Postemergence herbicidal rating, GLXMAW ([3]; rate 0.0620 kg/ha): 8.7; herbicidal rating, ECHORC ([4]; rate 0.0080 kg/ha): 8.0; herbicidal rating, ORYSAT (rice tolerance) ([5]; rate 0.0080 kg/ha): 5.0; Postemergence herbicidal rating, ECHCG ([10]; rate 0.0320 kg/ha): 5.0; Postemergence herbicidal rating, ECHCG ([10]; rate 0.0620 kg/ha): 3.0 |
| Cc1nn(-c2nsc3ccc(-n4c(=O)cc(C(F)(F)F)n(C)c4=O)cc23)c(C)c1C [Compound 49, 1-methyl-6-(trifluoromethyl)-3-[3-(3,4,5-trimethylpyrazol-1-yl)-1,2-benzisothiazol-5-yl]uracil] | 0.0 | 0.0 | 0.0 | – | 0.0 | 0.0 | 0.0 | 0.0 | 0.0 | 0.0 | 0.0 | 0.0 | 0.0 | 0.0 | 0.0 | 0.0 | 0.0 | 0.0 | 0.0 | 0.0 | ZEAMX herbicidal rating ([2]; rate 0.0320 kg/ha): 0.5; ZEAMX herbicidal rating ([2]; rate 0.0620 kg/ha): 2.5; GLXMAW herbicidal rating ([3]; rate 0.0320 kg/ha): 1.5; GLXMAW herbicidal rating ([3]; rate 0.0620 kg/ha): 2.5; ECHCG herbicidal rating ([10]; rate 0.0320 kg/ha): 0.0; ECHCG herbicidal rating ([10]; rate 0.0620 kg/ha): 0.0 |
| C[C@@H]1C[C@H](C)OC(c2nsc3ccc(-n4c(=O)cc(C(F)(F)F)n(C)c4=O)cc23)O1 (stereo partly drawn) [Compound 50, 3-[3-[(4R,6S)-4,6-dimethyl-m-dioxan-2-yl]-1,2-benzisothiazol-5-yl]-1-methyl-6-(trifluoromethyl)uracil] | 8.0 | 7.5 | 9.0 | – | 7.5 | 9.0 | 6.5 | 8.5 | 9.0 | 9.0 | 9.0 | 7.0 | 8.0 | 9.0 | 7.5 | 9.0 | 8.0 | 9.0 | 9.0 | 9.0 | ZEAMX herbicidal rating ([2]; rate 0.0320 kg/ha): 4.0; ZEAMX herbicidal rating ([2]; rate 0.0620 kg/ha): 5.0; GLXMAW herbicidal rating ([3]; rate 0.0320 kg/ha): 7.5; GLXMAW herbicidal rating ([3]; rate 0.0620 kg/ha): 7.5; herbicidal rating, ECHORC ([4]; rate 0.0080 kg/ha): 7.0; herbicidal rating, ORYSAT (rice tolerance) ([5]; rate 0.0080 kg/ha): 3.0; ECHCG herbicidal rating ([10]; rate 0.0320 kg/ha): 3.0; ECHCG herbicidal rating ([10]; rate 0.0620 kg/ha): 3.0 |
